Data: PMC11531485, “Examining prestructured β-actin peptides as substrates of histidine methyltransferase SETD3” (Scientific Reports, 2024)
One block for each molecule: values may come before it. Positions of bridges follow the written chain, without caps; N, C: chain ends. Non-standard residues stand in square brackets, D forms with d. Residues, ends and D or L forms follow the SMILES beside them. No end group written: not given here. Orn = NCCC[C@H](N)C(=O)O

Tests used:
[1] = target: T1, human SETD3 histidine methyltransferase (human, UniProt Q86TU7 1-594)
T1 sequence (looked up): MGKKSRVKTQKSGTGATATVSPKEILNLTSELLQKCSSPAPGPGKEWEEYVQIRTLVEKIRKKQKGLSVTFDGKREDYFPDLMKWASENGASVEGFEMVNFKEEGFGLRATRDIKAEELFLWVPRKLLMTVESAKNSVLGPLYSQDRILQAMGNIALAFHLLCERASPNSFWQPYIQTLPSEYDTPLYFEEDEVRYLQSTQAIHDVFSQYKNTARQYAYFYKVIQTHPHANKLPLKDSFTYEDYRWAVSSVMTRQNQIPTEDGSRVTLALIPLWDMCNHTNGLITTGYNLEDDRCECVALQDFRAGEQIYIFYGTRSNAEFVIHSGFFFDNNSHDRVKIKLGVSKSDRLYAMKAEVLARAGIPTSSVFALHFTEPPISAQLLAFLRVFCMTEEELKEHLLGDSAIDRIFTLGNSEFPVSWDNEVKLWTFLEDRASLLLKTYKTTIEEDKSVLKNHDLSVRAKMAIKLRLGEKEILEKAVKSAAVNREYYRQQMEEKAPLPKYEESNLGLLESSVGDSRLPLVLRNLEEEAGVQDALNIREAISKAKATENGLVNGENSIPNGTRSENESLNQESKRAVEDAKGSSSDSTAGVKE

human SETD3 [2] = target: T2, human SETD3 (Homo sapiens, UniProt Q86TU7); experiment: MALDI-TOF MS enzymatic substrate scope assay (SETD3-catalyzed methylation of βA peptides); assay type: biochemical; details: 1 µM SETD3, 10 µM βA peptide, 100 µM SAM, 25 mM Tris, 20 mM NaCl, pH 9.0, 37 °C; for SETD3-catalyzed methylation after 3 h: N = 2
T2 construct: His6 (N); made in house; host or cells: E. coli BL21(DE3)
T2 sequence (Q86TU7 1-594): T1 sequence (looked up)
Procedure: We examined conformationally restrained βA peptides and linear controls as substrates for the recombinantly expressed human SETD3 employing MALDI-TOF MS to detect a characteristic + 14 Da mass increase upon methylation. Enzymatic reactions were evaluated using standard conditions (1 µM SETD3, 10 µM βA, 100 µM SAM) in methylation buffer (25 mM Tris, 20 mM NaCl, pH = 9.0 at 37 °C)[21]. The enzymatic reaction was quenched with 10% TFA in MilliQ water (1:1 v/v) at 1 h and 3 h before mass spectrometric analysis (Figs . 4 and S3-S4). […] Finally, azide-alkyne Cu^I-mediated Huisgen 1,3-dipolar cycloaddition yields peptide 11 that was poorly (14%) methylated by SETD3 after 3 h under standard conditions (Figs. 4L and S4L). […] Taken together, these findings illustrate an overall preference of human SETD3 for flexible βA peptides, which facilitates βA-H73 insertion into the active site. Introduction of flexible macrocycles results in an overall reduced methylation by SETD3, while bulky or rigidifying moieties present within the macrocycles render the βA peptides non-reactive to methylation by SETD3.
Fig. 4 MALDI-TOF MS data showing SETD3-catalyzed (1 µM) methylation of βA peptides (10 µM) in the presence of SAM (100 µM) in reaction buffer (25 mM Tris, 20 mM NaCl, pH = 9.0) after 3 h at 37 °C. (A) βA, (B) 1, (C) 2, (D) 3, (E) 4, (F) 5, (G) 6, (H) 7, (I) 8, (J) 9, (K) 10, (L) 11. Control reactions in the absence of SETD3 are shown in black, whereas SETD3-catalyzed reactions are shown in red.
SETD3 substrate scope experiments towards βA peptides were performed by incubation of βA peptides (10 µM) in methylation buffer (25 mM Tris, 20 mM NaCl, pH = 9.0) in the presence of SAM (100 µM) and SETD3 (1 µM) in a final volume of 50 µL for 1 and 3 h at 37 °C while shaking at 750 rpm in an Eppendorf Thermomixer C. The reaction was quenched by addition of 10% TFA in MilliQ H2O (1:1). The reactions were aliquoted and mixed with α-cyano-4-hydroxycinnamic acid dissolved in MilliQ H2O and ACN (1:1, v/v) with 0.1% TFA. The aliquots were loaded onto a MTP 384 polished steel target for MALDI-TOF analysis using a UltrafleXtreme and conversion to methylated product was monitored.

[3] = target: human SETD3 histidine methyltransferase (human) (UniProt Q86TU7)
human SETD3 [4] = target: T2, human SETD3; experiment: MALDI-TOF MS methylation kinetics assay (Michaelis-Menten, steady state); assay type: biochemical; details: 200 nM SETD3, 3.125-150 µM peptide, 100 µM SAM, pH 9.0, 37 °C; for Km / kcat: 25 mM Tris, 20 mM NaCl, MALDI-TOF MS, duplicate, mean ± SE, SEM
Procedure: (§1) Catalytic efficiencies were explored for SETD3-catalyzed methylation of linear βA peptides 1, 6, 8 and 10 (Fig. 5; Table 1). Kinetic parameters were determined using MALDI-TOF MS assays under steady-state conditions by incubation with saturating amounts of SAM (100 µM)[23]. Addition of SETD3 (200 nM) to varying concentrations of linear βA peptides (0–150 µM) in reaction buffer initiated the reaction, upon which the mixture was incubated at 37 °C and quenched at timepoints that guarantee v0-reaction rates for SETD3-catalyzed methylation.
(§2) Fig. 5 Michaelis–Menten kinetics of linear βA peptides at varying concentrations (3.125-150 µM) by SETD3 (200 nM) in presence of saturating amounts of SAM (100 µM) in reaction buffer (25 mM Tris, 20 mM NaCl, pH = 9.0) at 37 °C.
(§3) Kinetics evaluation was carried out with a MALDI-TOF MS assay under steady state conditions. βA peptides (3.125–150 µM) and SAM (100 µM) were dissolved in methylation buffer (25 mM Tris, 20 mM NaCl, pH = 9.0), upon which the reaction was initiated by addition of SETD3. Reactions were incubated at 37 °C and shaken at 750 rpm Eppendorf Thermomixer C for 30 min, upon which the reactions were quenched by addition of 10% TFA in MilliQ water (1:1). Reactions were aliquoted and mixed with α-cyano-4-hydroxycinnamic acid dissolved in MilliQ H2O and ACN (1:1, v/v) with 0.1% TFA. The aliquots were loaded onto a MTP 384 polished steel target for MALDI-TOF analysis using a UltrafleXtreme. Methylated product was quantified by determining the combined integrals of the various ionic species of the methylated product. Kinetic parameters were subsequently determined by plotting V0 values and actin peptide concentrations and fitting them to the Michaelis–Menten equation using GraphPad Prism software. Experiments were performed in duplicate and values are reported as mean [drawing 1] standard error (SE) (Figs. S3-S4).

[5] = substrate: CC[C@H](C)[C@H](NC(=O)CNC(=O)[C@H](Cc1c[nH]cn1)NC(=O)[C@H](CCC(=O)O)NC(=O)[C@@H](NC(=O)[C@@H]1CCCN1C(=O)[C@H](Cc1ccc(O)cc1)NC(=O)[C@H](CCCCN)NC(=O)[C@H](CC(C)C)NC(=O)[C@@H](N)[C@@H](C)O)[C@@H](C)CC)C(=O)N[C@H](C(=O)N[C@H](C(=O)N[C@@H](CC(N)=O)C(=O)N[C@@H](Cc1c[nH]c2ccccc12)C(=O)N[C@@H](CC(=O)O)C(=O)N[C@@H](CC(=O)O)C(N)=O)[C@@H](C)O)C(C)C; experiment: as above; assay type: biochemical, human; details: other: 200 nM SETD3, 3.125-150 µM peptide, 100 µM SAM, 25 mM Tris, 20 mM NaCl, pH 9.0, 37 °C, duplicate, mean ± SE
Procedure: as §1, §2, §3

Km of SETD3-catalysed methylation, MALDI-TOF MS steady-state kinetics (200 nM SETD3, 100 µM SAM, pH 9.0, 37 °C) [1]: 45.2 µM
kcat of SETD3-catalysed methylation, MALDI-TOF MS steady-state kinetics (200 nM SETD3, 100 µM SAM, pH 9.0, 37 °C) [1]: 221 min^-1
kcat/Km of SETD3-catalysed methylation, MALDI-TOF MS steady-state kinetics (200 nM SETD3, 100 µM SAM, pH 9.0, 37 °C) [1]: 4.91 µM^-1min^-1
Molecule: linear βA peptide 6 (Ile75 replaced by ornithine) (from UniProt P60709 66-81)

SETD3-catalyzed methylation after 3 h (human SETD3 [2]): 35%
Molecule: TLKYPICHGCVTNWDD (also: sidechain bridge or staple (positions not given here)) [compound 3, stapled bis-thiol alkylated βA peptide]

SETD3-catalyzed methylation after 3 h (in words) (human SETD3 [2]): inert to methylation
Molecule: TLKYPICHGCVTNWDD (also: sidechain bridge or staple (positions not given here)) [compound 4, βA peptide stapled with hexafluorobenzene]

SETD3-catalyzed methylation after 3 h (human SETD3 [2]): 30%
Molecule: TLKYPICHGCVTNWDD (also: sidechain bridge or staple (positions not given here)) [compound 2, stapled bis-thiol alkylated βA peptide]

SETD3-catalyzed methylation after 3 h (human SETD3 [2]): 14%
Molecule: TLKYPILys(N3)HGPraVTNWDD (sidechain bridge or staple) [compound 11, triazole-stapled βA peptide from azide-alkyne cycloaddition of 10]

Km (human SETD3 [4]): 45.2 ± 8.1 µM
kcat (human SETD3 [4]): 3.68 ± 0.267 s⁻¹
kcat/Km (human SETD3 [4]): 81800 M⁻¹ s⁻¹
SETD3-catalyzed methylation (conversion) within 1 h (human SETD3 [2]): completely methylated
Molecule: TLKYPIEHG[Orn]VTNWDD [compound 6, linear lactam control, βA-I75 substituted by Orn]

SETD3-catalyzed methylation after 3 h (human SETD3 [2]): 41%
Molecule: TLKYPIEHG[Orn]VTNWDD (also: sidechain bridge or staple (positions not given here)) [compound 7, i, i + 3 lactam-bridged βA peptide (Glu72-Orn75)]

The next lines start with the molecule.

Molecule: linear βA peptide 8 (I75K) (from UniProt P60709 66-81)
Km of SETD3-catalysed methylation, MALDI-TOF MS steady-state kinetics (200 nM SETD3, 100 µM SAM, pH 9.0, 37 °C) [3]: 25.1 µM
kcat of SETD3-catalysed methylation, MALDI-TOF MS steady-state kinetics (200 nM SETD3, 100 µM SAM, pH 9.0, 37 °C) [3]: 246 min^-1
kcat/Km of SETD3-catalysed methylation, MALDI-TOF MS steady-state kinetics (200 nM SETD3, 100 µM SAM, pH 9.0, 37 °C) [3]: 9.8 µM^-1min^-1

Molecule: CC[C@H](C)[C@H](NC(=O)[C@@H]1CCCN1C(=O)[C@H](Cc1ccc(O)cc1)NC(=O)[C@H](CCCCN)NC(=O)[C@H](CC(C)C)NC(=O)[C@@H](N)[C@@H](C)O)C(=O)N[C@H]1CCC(=O)NCCCC[C@@H](C(=O)N[C@H](C(=O)N[C@H](C(=O)N[C@@H](CC(N)=O)C(=O)N[C@@H](Cc2c[nH]c3ccccc23)C(=O)N[C@@H](CC(=O)O)C(=O)N[C@@H](CC(=O)O)C(N)=O)[C@@H](C)O)C(C)C)NC(=O)CNC(=O)[C@H](Cc2c[nH]cn2)NC1=O [compound 9] (H-TLKYPIEHGKVTNWDD-NH2; lactam 7-10)
SETD3-catalyzed methylation after 3 h (human SETD3 [2]): 25%

Molecule: TLKYPICHGCVTNWDD [compound 1, linear dicysteine βA66-81 control peptide]
Km (human SETD3 [4]): 75.7 ± 20 µM
kcat (human SETD3 [4]): 0.983 ± 0.125 s⁻¹
kcat/Km (human SETD3 [4]): 13000 M⁻¹ s⁻¹
SETD3-catalyzed methylation (conversion) within 1 h (human SETD3 [2]): full conversion

Molecule: TLKYPILys(N3)HGPraVTNWDD [compound 10, linear click-control with azido-lysine and propargylglycine]
Km (human SETD3 [4]): 77.8 ± 14 µM
kcat (human SETD3 [4]): 1.72 ± 0.15 s⁻¹
kcat/Km (human SETD3 [4]): 22000 M⁻¹ s⁻¹
SETD3-catalyzed methylation after 3 h (in words) (human SETD3 [2]): full conversion

B1: human SETD3 (Homo sapiens) (protein)
chain: T1 sequence (looked up)
notes: His6 (N); made in house; host or cells: E. coli BL21(DE3)
Km [5]: 25.6 ± 4.9 µM
kcat [5]: 2.47 ± 0.145 s⁻¹
kcat/Km [5]: 96300 M⁻¹ s⁻¹
